# What was measured:
# L1210 [1] = assay: In vitro for the inhibitory activity against L1210 leukemia cells at a concentration 3.2x10 E -4 M; type: functional; conditions: Mus musculus
# L1210 [2] = assay: In vitro for the inhibitory activity against L1210 leukemia cells at a concentration 3.4x10 E -4 M; type: functional; conditions: Mus musculus
smiles,measurement,setting,value
C=C1C[C@@H](O)[C@H](n2cnc3c(N)ncnc32)O1,inhibition at 320 µM,L1210 [1],50%
C=C1C[C@@H](O)[C@@H](n2cnc3c(N)ncnc32)O1,inhibition at 340 µM,L1210 [2],50%
